A word on the IC50: it is the concentration that inhibits the measured activity by half.

This assay addresses T1, Thromboxane-A synthase (Rattus norvegicus, UniProt P49430).
T1 sequence (P49430 whole entry): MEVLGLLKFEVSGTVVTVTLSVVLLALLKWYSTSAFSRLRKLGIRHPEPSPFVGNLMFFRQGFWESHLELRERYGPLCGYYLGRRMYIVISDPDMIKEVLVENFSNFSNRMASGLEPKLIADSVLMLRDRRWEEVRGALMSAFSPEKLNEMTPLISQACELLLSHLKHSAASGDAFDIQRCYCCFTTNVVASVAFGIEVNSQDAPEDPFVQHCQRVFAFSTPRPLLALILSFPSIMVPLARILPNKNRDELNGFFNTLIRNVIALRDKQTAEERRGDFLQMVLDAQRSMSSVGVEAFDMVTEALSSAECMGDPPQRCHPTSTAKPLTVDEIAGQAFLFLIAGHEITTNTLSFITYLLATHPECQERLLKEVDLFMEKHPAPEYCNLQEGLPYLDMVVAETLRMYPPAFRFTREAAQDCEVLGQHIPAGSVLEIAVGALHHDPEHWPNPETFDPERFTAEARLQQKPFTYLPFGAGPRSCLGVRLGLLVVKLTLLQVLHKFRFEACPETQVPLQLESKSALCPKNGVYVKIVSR
As to the kind of experiment: ChEBML_213089. The text has this: In vitro inhibition of thromboxane B2 production in rat whole blood.

`CC1=NC(C)=C(C(=O)OCC(C)C)C(c2cccc(-c3cccnc3)c2)C1C(=O)OCC(C)C` (stereo unspecified) [2,6-Dimethyl-4-(3-pyridin-3-yl-phenyl)-1,4-dihydro-pyridine-3,5-dicarboxylic acid diisobutyl ester] gave an IC50 above 1000 nM.

On to `CCOC(=O)C1C(C)=NC(C)=C(C(=O)OCCN(C)Cc2ccccc2)C1c1cccc(-c2cccnc2)c1` (stereo unspecified) [2,6-Dimethyl-4-(3-pyridin-3-yl-phenyl)-1,4-dihydro-pyridine-3,5-dicarboxylic acid 3-[2-(benzyl-methyl-amino)-ethyl] ester 5-ethyl ester], for which the half-maximal inhibitory concentration (IC50) was above 1000 nM. For `CCOC(=O)C1=C(C)N=C(C)C(C(=O)O)C1c1cccc(-n2ccnc2)c1` (stereo unspecified) [4-(3-Imidazol-1-yl-phenyl)-2,6-dimethyl-1,4-dihydro-pyridine-3,5-dicarboxylic acid monoethyl ester], the IC50 was above 1000 nM. For `CCOC(=O)C1=C(CC)N=C(CC)C(C(=O)OCC)C1c1cccc(-n2ccnc2)c1` (stereo unspecified) [2,6-Diethyl-4-(3-imidazol-1-yl-phenyl)-1,4-dihydro-pyridine-3,5-dicarboxylic acid diethyl ester] the value was above 1000 nM; for `CCOC(=O)C1=C(C)N=C(C)C(C(=O)OCC)C1c1ccc(-n2ccnc2)cc1` (stereo unspecified) [4-(4-Imidazol-1-yl-phenyl)-2,6-dimethyl-1,4-dihydro-pyridine-3,5-dicarboxylic acid diethyl ester], above 1000 nM. Compound `CCOC(=O)C1=C(C)N=C(C)C(C(=O)OCC)C1c1ccccc1-n1ccnc1` (stereo unspecified) [4-(2-Imidazol-1-yl-phenyl)-2,6-dimethyl-1,4-dihydro-pyridine-3,5-dicarboxylic acid diethyl ester] gave an IC50 above 1000 nM.

Values taken from BindingDB's records for doi:10.1021/jm00072a017 (Farmitalia Carlo Erba, 1993).
